Measurements: ChEMBL document CHEMBL4354805, “Discovery of MK-8719, a Potent O-GlcNAcase Inhibitor as a Potential Treatment for Tauopathies” (J Med Chem, 2019)

Experiments:
[1] = Fraction unbound in human plasma at 2.5 uM by equilibrium dialysis; assay type: ADME, cell-free
[2] = target: T1, Beta-hexosaminidase subunit beta (Homo sapiens, UniProt P07686); assay: Inhibition of human beta hexosaminidase assessed as inhibitory constant using 4-methylumbelliferyl N-acetyl-beta-D-glucosaminide dihydrate as substrate measured every 60 sec for 45 mins by fluorescence spectrophotometry
T1 sequence (P07686 whole entry): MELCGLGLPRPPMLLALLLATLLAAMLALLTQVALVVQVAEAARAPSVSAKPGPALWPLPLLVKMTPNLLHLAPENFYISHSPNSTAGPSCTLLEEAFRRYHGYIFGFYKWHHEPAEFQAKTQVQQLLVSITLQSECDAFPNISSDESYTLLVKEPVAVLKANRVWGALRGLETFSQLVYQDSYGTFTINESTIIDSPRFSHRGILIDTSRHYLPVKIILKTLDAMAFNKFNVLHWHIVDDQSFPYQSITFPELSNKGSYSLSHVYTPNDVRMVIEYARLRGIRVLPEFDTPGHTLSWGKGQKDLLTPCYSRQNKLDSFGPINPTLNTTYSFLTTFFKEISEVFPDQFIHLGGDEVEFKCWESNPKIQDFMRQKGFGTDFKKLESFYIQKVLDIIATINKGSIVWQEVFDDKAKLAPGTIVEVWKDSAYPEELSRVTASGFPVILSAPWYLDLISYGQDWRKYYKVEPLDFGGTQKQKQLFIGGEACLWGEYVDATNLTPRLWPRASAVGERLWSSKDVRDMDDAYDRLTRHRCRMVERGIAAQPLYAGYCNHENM

[3] = test system: Rattus norvegicus; assay: Elevation of O-protein in rat brain at 3 mg/kg, po measured after 24 hrs relative to control; assay type: functional
[4] = test system: MDR1; assay: Apparent permeability in pig LLC-PK1 cells transfected with MDR1; assay type: ADME, cell-based, Sus scrofa
[5] = Drug uptake in rat brain at 3 mg/kg, po measured after 8 hrs; assay type: ADME, organism-based; conditions: in vivo
[6] = Drug uptake in rat brain at 3 mg/kg, po measured after 24 hrs; assay type: ADME, organism-based; conditions: in vivo
[7] = target: T2, Protein O-GlcNAcase (Rattus norvegicus, UniProt Q8VIJ5); assay: Inhibition of OGA in rat PC12 cells assessed as OGlcNAcylated protein level incubated for 24 hrs by ELISA; assay type: cell-based
T2 sequence (Q8VIJ5 whole entry): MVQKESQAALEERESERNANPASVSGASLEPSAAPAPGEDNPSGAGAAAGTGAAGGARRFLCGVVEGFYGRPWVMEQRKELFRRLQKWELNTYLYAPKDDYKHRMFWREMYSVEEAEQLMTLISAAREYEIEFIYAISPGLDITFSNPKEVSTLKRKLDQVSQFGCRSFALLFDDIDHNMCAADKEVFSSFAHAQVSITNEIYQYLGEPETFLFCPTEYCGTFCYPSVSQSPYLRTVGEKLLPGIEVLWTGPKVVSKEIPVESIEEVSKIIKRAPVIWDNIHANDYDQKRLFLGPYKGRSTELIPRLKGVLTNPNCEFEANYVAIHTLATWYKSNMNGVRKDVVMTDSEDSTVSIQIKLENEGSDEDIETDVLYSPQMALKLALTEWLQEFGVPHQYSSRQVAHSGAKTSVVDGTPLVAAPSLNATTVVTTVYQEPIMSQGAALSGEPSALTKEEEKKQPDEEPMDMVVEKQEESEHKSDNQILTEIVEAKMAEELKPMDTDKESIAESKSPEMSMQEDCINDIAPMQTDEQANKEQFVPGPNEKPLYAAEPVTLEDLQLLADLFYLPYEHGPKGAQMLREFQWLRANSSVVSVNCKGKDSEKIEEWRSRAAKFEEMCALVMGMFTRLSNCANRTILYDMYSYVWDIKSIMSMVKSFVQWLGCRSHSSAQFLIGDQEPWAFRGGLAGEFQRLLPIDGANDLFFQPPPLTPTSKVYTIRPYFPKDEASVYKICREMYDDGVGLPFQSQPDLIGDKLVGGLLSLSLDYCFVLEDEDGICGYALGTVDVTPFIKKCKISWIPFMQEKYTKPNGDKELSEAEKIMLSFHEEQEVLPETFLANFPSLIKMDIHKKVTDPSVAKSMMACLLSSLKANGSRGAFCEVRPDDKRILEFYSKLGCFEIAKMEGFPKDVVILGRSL

[8] = test system: Rattus norvegicus; assay: Elevation of O-protein in rat brain at 3 mg/kg, po measured after 8 hrs relative to control; assay type: functional
[9] = Ratio of drug uptake in rat brain to plasma at 3 mg/kg, po measured after 8 hrs; assay type: ADME, organism-based; conditions: read-out: BPR
[10] = Oral bioavailability in Wistar Han rat at 3 mg/kg; assay type: ADME, organism-based; conditions: in vivo
[11] = Clearance in Wistar Han rat at 2 mg/kg, iv; assay type: ADME, organism-based; conditions: in vivo
[12] = Volume of distribution at steady state in Wistar Han rat at 2 mg/kg, iv or 3 mg/kg, po; assay type: ADME, organism-based; conditions: in vivo, read-out: Vdss
[13] = Ratio of drug uptake in rat brain to plasma at 3 mg/kg, po measured after 24 hrs; assay type: ADME, organism-based; conditions: read-out: BPR
[14] = AUCN in Wistar Han rat at 3 mg/kg, po; assay type: ADME, organism-based; conditions: in vivo
[15] = Half life in Wistar Han rat at 2 mg/kg, iv; assay type: ADME, organism-based; conditions: in vivo
[16] = Fraction unbound in Wistar Han rat plasma at 2.5 uM by equilibrium dialysis; assay type: ADME, cell-free
[17] = target: T3, Protein O-GlcNAcase (Homo sapiens, UniProt O60502); assay: Inhibition of recombinant human OGA
T3 sequence (O60502 whole entry): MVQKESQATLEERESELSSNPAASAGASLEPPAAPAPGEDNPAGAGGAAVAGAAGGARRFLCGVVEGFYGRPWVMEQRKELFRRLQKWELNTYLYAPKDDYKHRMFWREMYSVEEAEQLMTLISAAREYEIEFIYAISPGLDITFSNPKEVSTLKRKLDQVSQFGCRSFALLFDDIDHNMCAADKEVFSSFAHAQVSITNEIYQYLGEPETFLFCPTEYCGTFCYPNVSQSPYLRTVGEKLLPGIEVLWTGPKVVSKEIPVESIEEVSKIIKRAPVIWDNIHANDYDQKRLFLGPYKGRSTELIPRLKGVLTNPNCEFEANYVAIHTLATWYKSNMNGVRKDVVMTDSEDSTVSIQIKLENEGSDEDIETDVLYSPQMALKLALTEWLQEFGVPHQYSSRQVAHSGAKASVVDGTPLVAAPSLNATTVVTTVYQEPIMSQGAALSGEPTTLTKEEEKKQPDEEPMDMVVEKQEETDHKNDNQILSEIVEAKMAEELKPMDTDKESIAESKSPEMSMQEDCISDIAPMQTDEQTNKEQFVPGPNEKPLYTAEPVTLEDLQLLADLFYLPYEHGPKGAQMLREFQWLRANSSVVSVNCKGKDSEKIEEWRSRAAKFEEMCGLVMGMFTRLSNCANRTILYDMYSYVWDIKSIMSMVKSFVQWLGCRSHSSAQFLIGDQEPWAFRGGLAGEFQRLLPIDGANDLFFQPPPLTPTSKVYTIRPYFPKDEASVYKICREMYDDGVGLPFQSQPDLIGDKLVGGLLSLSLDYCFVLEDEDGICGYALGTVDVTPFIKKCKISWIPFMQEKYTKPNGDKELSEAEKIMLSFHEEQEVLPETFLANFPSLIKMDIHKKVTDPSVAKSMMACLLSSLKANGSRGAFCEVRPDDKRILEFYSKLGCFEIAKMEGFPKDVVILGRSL

[18] = test system: Rattus norvegicus; assay: Elevation of O-protein in rat brain at 10 mg/kg, po measured after 24 hrs; assay type: functional
[19] = test system: Rattus norvegicus; assay: Increase in O-protein AUC in rat brain at 10 mg/kg, po measured upto 24 hrs; assay type: ADME, organism-based; conditions: in vivo
[20] = AUC (0 to 24 hrs) in rat brain at 10 mg/kg, po measured upto 24 hrs; assay type: ADME, organism-based; set-up: dose 10 mg/kg, time < 24 hr, route oral; conditions: in vivo
[21] = Tmax in rat brain at 10 mg/kg, po measured upto 24 hrs; assay type: ADME, organism-based
[22] = target: Cytochrome P450 3A4 (Homo sapiens, UniProt P08684); assay: Inhibition of CYP3A4 (unknown origin); assay type: ADME
Cytochrome P450 3A4, sequence (P08684 whole entry): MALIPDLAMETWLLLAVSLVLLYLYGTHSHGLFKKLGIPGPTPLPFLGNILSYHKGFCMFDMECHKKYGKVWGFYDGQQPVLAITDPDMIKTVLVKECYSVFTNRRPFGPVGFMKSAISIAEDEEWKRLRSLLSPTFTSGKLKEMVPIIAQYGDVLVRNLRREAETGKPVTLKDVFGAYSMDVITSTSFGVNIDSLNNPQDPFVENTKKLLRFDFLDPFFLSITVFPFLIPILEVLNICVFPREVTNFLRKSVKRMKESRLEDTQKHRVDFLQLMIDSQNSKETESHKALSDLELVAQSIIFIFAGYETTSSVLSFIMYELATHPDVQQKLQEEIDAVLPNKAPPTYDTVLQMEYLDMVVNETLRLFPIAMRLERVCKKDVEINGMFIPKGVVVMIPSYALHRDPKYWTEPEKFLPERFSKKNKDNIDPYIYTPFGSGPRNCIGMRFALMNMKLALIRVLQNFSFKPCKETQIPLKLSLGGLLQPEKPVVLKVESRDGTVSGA

[23] = target: Voltage-dependent L-type calcium channel subunit alpha-1C (Homo sapiens, UniProt Q13936); assay: Inhibition of Cav1.2 (unknown origin)
[24] = target: Cytochrome P450 2D6 (Homo sapiens, UniProt P10635); assay: Inhibition of CYP2D6 (unknown origin); assay type: ADME
Cytochrome P450 2D6, sequence (P10635 whole entry): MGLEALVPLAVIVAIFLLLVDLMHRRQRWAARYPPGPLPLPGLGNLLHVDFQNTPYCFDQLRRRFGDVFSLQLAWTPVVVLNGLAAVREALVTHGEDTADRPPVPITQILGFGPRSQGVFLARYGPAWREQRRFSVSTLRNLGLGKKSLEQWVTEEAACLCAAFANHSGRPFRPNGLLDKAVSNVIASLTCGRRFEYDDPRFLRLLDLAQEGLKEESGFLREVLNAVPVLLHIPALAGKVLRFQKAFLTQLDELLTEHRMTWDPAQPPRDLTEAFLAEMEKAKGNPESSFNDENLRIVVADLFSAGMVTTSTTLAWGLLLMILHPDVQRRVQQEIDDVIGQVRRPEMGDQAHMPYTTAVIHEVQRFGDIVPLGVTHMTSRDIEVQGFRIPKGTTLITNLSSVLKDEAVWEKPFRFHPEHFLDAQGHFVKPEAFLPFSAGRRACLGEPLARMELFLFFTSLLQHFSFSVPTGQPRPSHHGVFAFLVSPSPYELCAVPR

[25] = target: T4, Nuclear receptor subfamily 1 group I member 2 (Homo sapiens, UniProt O75469); assay: Activation of PXR (unknown origin) assessed as CYP3A4 induction
T4 sequence (O75469 whole entry): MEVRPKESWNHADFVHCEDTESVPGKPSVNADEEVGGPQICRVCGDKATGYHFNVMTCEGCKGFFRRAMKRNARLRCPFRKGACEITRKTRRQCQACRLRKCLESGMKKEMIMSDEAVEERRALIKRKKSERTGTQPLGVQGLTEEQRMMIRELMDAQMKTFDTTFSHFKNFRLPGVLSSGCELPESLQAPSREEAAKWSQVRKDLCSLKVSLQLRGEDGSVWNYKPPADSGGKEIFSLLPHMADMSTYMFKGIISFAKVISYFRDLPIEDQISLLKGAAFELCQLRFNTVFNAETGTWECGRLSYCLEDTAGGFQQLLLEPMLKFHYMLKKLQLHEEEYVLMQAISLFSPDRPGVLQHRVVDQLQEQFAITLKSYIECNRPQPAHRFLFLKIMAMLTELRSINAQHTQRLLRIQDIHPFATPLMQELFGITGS

[26] = target: Voltage-gated inwardly rectifying potassium channel KCNH2 (Homo sapiens, UniProt Q12809); assay: Displacement of MK-0499 from human ERG
Voltage-gated inwardly rectifying potassium channel KCNH2, sequence (Q12809 whole entry): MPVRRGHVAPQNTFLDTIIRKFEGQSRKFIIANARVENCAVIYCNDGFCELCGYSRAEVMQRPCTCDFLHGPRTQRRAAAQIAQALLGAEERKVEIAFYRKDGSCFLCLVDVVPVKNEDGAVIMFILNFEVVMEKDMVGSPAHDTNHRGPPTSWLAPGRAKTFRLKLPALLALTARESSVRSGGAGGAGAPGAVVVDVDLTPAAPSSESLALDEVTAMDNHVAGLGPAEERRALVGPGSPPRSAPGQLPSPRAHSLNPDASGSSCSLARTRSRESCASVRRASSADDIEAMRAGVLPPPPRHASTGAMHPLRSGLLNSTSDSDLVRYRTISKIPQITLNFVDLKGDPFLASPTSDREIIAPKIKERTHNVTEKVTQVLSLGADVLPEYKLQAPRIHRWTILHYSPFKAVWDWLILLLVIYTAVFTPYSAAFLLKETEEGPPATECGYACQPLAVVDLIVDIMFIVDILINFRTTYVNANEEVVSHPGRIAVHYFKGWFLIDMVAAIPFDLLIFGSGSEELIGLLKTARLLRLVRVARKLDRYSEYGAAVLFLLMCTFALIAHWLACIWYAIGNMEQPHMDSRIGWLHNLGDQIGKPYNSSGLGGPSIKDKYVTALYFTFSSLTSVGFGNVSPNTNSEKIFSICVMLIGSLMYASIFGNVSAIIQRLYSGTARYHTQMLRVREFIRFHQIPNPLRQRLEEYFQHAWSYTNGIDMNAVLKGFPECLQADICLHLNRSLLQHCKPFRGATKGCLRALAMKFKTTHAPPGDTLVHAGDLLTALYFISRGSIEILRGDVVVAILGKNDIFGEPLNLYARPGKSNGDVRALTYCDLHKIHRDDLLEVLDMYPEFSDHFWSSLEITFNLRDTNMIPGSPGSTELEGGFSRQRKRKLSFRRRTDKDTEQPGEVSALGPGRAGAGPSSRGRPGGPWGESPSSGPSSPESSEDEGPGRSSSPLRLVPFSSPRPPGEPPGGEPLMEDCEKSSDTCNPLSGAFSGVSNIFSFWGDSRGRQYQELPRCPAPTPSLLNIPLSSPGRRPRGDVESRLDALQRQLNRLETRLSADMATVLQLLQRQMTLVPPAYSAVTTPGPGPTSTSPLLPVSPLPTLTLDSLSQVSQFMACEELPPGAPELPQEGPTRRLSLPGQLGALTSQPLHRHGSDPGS

[27] = target: Sodium channel protein type 5 subunit alpha (Homo sapiens, UniProt Q14524); assay: Inhibition of Nav1.5 (unknown origin)
Sodium channel protein type 5 subunit alpha, sequence (Q14524 whole entry): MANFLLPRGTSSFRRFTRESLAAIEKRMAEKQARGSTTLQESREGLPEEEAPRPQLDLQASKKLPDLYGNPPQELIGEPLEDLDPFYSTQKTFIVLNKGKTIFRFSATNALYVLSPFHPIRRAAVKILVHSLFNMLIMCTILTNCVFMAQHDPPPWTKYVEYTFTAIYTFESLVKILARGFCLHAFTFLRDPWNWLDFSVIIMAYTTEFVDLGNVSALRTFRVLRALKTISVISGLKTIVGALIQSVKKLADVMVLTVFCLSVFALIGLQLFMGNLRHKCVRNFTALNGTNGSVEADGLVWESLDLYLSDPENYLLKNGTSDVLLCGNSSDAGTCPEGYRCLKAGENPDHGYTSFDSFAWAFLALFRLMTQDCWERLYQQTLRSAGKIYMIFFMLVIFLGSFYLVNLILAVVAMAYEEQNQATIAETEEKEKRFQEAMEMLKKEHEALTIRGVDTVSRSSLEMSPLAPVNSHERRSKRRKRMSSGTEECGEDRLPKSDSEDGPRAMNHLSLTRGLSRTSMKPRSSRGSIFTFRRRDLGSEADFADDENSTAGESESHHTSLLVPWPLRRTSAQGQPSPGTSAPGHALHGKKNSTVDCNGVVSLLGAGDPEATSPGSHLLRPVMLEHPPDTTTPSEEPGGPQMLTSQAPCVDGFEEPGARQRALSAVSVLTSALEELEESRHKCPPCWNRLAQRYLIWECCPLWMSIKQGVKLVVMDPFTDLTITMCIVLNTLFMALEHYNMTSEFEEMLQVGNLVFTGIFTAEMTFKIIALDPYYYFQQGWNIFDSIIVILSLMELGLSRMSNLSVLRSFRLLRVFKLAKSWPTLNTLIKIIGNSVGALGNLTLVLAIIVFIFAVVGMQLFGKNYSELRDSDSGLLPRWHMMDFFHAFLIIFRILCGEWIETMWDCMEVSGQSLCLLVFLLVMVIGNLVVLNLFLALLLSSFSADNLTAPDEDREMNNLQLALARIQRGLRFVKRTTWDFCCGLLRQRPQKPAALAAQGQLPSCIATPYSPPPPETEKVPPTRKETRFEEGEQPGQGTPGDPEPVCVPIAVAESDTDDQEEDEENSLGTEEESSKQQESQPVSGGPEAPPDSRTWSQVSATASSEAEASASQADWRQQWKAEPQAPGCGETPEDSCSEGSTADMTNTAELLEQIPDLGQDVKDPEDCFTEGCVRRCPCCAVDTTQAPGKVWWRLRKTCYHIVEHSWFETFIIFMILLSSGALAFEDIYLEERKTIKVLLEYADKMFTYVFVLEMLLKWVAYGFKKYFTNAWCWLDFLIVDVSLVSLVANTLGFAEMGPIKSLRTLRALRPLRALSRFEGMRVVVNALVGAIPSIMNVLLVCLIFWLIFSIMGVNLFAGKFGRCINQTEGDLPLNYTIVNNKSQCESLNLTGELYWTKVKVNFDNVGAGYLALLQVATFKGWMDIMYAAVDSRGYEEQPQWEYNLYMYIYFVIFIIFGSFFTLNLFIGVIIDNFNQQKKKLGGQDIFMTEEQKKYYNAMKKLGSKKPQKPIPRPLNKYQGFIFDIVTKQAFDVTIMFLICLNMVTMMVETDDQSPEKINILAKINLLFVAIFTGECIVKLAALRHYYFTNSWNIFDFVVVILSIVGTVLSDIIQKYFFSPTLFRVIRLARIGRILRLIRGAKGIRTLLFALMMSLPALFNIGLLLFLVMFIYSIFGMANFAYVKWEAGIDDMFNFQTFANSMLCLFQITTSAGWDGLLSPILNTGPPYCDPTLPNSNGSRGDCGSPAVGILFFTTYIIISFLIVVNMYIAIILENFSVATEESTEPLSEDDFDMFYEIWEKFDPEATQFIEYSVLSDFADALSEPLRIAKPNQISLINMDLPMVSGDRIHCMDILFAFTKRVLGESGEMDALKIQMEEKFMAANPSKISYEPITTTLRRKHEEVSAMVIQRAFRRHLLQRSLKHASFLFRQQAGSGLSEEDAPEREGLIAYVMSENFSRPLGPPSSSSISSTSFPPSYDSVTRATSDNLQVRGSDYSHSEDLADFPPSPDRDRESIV

[28] = target: Cytochrome P450 2C9 (Homo sapiens, UniProt P11712); assay: Inhibition of CYP2C9 (unknown origin); assay type: ADME
Cytochrome P450 2C9, sequence (P11712 whole entry): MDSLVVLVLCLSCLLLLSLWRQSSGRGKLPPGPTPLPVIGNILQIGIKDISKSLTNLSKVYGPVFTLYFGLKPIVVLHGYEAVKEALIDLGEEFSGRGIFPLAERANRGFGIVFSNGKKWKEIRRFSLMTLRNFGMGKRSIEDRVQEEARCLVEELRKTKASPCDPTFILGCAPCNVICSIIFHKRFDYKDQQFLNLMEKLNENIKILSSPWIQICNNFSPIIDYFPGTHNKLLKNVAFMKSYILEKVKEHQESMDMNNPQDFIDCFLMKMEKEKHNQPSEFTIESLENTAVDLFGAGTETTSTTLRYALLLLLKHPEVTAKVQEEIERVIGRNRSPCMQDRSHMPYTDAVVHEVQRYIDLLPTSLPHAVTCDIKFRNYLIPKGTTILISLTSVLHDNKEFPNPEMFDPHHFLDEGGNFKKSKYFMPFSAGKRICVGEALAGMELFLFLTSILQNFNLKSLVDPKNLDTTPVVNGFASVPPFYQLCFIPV

| SMILES | fraction unbound at 2.5 µM [1] | Ki [2] | fold change (FC) [3] | Papp [4] | Drug uptake [5] | Drug uptake [6] | EC50 [7] | fold change (FC) [8] | Kp at 8 h [9] | bioavailability [10] | clearance [11] | Vd [12] | Kp at 24 h [13] | AUC/dose [14] | half-life [15] | fraction unbound at 2.5 µM [16] | Ki [17] | further results |
| --- | --- | --- | --- | --- | --- | --- | --- | --- | --- | --- | --- | --- | --- | --- | --- | --- | --- | --- |
| CNC1=N[C@@H]2[C@@H](O)[C@H](O)[C@@H](CF)O[C@@H]2S1 | 0.96 | 790 nM | 1.65 | 5.3 ×10⁻⁶ cm/s | 0.068 nmol/g | 0.025 nmol/g | 34.4 nM | 2.44 | 0.6 | 132% | 27.8 mL/min/kg | 1.79 L/kg | ≥ 7.9 | 3.36 µM·kg·h/mg | 1.71 h | 0.88 | 0.55 nM | – |
| CNC1=N[C@@H]2C[C@H](O)[C@@H](C(F)F)O[C@@H]2S1 | > 0.99 | > 10000 nM | – | 24 ×10⁻⁶ cm/s | 0.289 nmol/g | – | – | 1.8 | 2.22 | 74.7% | 30.4 mL/min/kg | 2.23 L/kg | – | 1.9 µM·kg·h/mg | 1.66 h | 0.88 | – | fold change (FC) [18]: 2.69; fold change (FC) [19]: 19.68; AUC [20]: 53.87 nM·h/g; Tmax [21]: 8 h |
| CN(C)C1=N[C@@H]2[C@@H](O)[C@H](O)[C@@H](CF)O[C@@H]2S1 | > 0.99 | 1600 nM | 1.77 | 6.8 ×10⁻⁶ cm/s | 0.222 nmol/g | 0.038 nmol/g | 177 nM | 2.33 | 0.9 | 75.3% | 43.7 mL/min/kg | 10.5 L/kg | 1.53 | 0.954 µM·kg·h/mg | – | > 0.99 | 9 nM | – |
| CCNC1=N[C@@H]2[C@@H](O)[C@H](O)[C@@H](CF)O[C@@H]2S1 | 0.87 | – | 1.74 | 6.1 ×10⁻⁶ cm/s | 0.228 nmol/g | 0.047 nmol/g | 176 nM | 1.84 | 1.49 | 102% | 37.4 mL/min/kg | 3.8 L/kg | ≥ 18.7 | 1.77 µM·kg·h/mg | 2.39 h | 0.98 | 20 nM | IC50 [22]: > 50000 nM; IC50 [23]: > 30000 nM; IC50 [24]: > 50000 nM; EC50 [25]: > 30000 nM; IC50 [26]: > 30000 nM; IC50 [27]: > 30000 nM; IC50 [28]: > 50000 nM |
